We go through eleven molecules from ChEMBL document CHEMBL1201862, “PubChem BioAssay data set” (2004).

Some test systems named below: Malme-3M; SF-268; SK-MEL-28; SN12C; MDA-N; OVCAR-3; HOP-62; NCI-H522; NCI-H23; SK-MEL-5; MCF7; PC-3; OVCAR-5; COLO 205; MDA-MB-435; UACC-62; HCC 2998; HL-60; A498; HOP-92.
What all share (assay): NCI-60 cell line screen, 48 h

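The compound was tested at five concentrations on cells cultured in 96-well plates, with a 48-hour exposure period. Here, GI50 denotes the concentration required for 50% inhibition of growth.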 Calls of active or inactive are those of the source. Rule as the data show it: active = GI50 up to about 1.1 µM and inactive = higher. A value given as a limit tells only on which side of the number the result lay.

`N#Cc1c(N2CCN(c3ccc([N+](=O)[O-])cc3)CC2)[n+]([O-])c2ccccc2[n+]1[O-]`: the GI50 in the assay on Malme-3M was > 100 µM (inactive); with SF-268, 0.346 µM (active); in the assay with SK-MEL-28, > 100 µM (inactive); with SN12C, > 100 µM (inactive); in the assay on MDA-N, > 100 µM (inactive); in the assay on OVCAR-3, > 100 µM (inactive). Moreover, the GI50 in the assay with HOP-62 is > 100 µM (inactive); in the assay on NCI-H522 it was 3.5 µM (inactive); in the assay on NCI-H23 it was > 100 µM (inactive); in the assay with SK-MEL-5 it was > 100 µM (inactive); with MCF7 it was > 100 µM (inactive); in the assay with PC-3, > 100 µM (inactive). Besides, the GI50 with OVCAR-5, in the assay on COLO 205, in the assay with MDA-MB-435, in the assay on UACC-62 and in the assay with HCC 2998 was > 100 µM (inactive) each time.

Consider `O=C1c2ccccc2C2(c3ccc(F)cc3)NCCN12` (configuration not stated), for which the GI50 with Malme-3M, in the assay with SF-268, in the assay on SK-MEL-28, in the assay on SN12C, in the assay with MDA-N and with OVCAR-3 was > 100 µM (inactive) each time. Further, the GI50 in the assay with HOP-62, in the assay with NCI-H522, in the assay on NCI-H23, in the assay with SK-MEL-5, in the assay on MCF7 and in the assay on PC-3 was > 100 µM (inactive) each time. The GI50 in the assay on OVCAR-5, with COLO 205, in the assay with MDA-MB-435, in the assay on HL-60, with UACC-62 and in the assay on HCC 2998 was > 100 µM (inactive) in each case.

Regarding `O=C(NC(=O)c1ccccc1)OC(c1ccccc1)C1CO1` (configuration not stated), the GI50 in the assay on Malme-3M, in the assay with SF-268, in the assay with SK-MEL-28, in the assay with SN12C, with MDA-N and with OVCAR-3 was > 100 µM (inactive) each time. For the same molecule, the GI50 in the assay with HOP-62, with NCI-H522, in the assay on NCI-H23, in the assay on SK-MEL-5, with MCF7 and in the assay on PC-3 was > 100 µM (inactive) throughout. For the same molecule, the GI50 with OVCAR-5, in the assay on COLO 205, in the assay with MDA-MB-435, in the assay on HL-60, in the assay with UACC-62 and in the assay on HCC 2998 was > 100 µM (inactive) in each case.

Take `CCOC(=O)c1nnc2c(C#N)c(-c3ccccc3)c(C)n2c1N`: the GI50 with Malme-3M is 20.7 µM (inactive); in the assay with SF-268, 37.7 µM (inactive); with SK-MEL-28 it was 21.6 µM (inactive); in the assay on SN12C it was 37.8 µM (inactive); in the assay on MDA-N, 27 µM (inactive); with OVCAR-3, 29.4 µM (inactive). Moreover, the GI50 was 85.7 µM (inactive) with HOP-62; 27.7 µM (inactive) in the assay on NCI-H522; 38.3 µM (inactive) with NCI-H23; 39.9 µM (inactive) in the assay on SK-MEL-5; 39.4 µM (inactive) in the assay with MCF7; 82.4 µM (inactive) in the assay with PC-3. For the same molecule, the GI50 was > 100 µM (inactive) with OVCAR-5; 26.8 µM (inactive) in the assay with A498; 32.9 µM (inactive) with COLO 205; 32 µM (inactive) in the assay with MDA-MB-435; 23.9 µM (inactive) with UACC-62; 32.5 µM (inactive) in the assay on HCC 2998.

Consider `CC(CN(C)C)C(=O)c1ccccc1C(=O)O` (configuration not stated), for which the GI50 in the assay with Malme-3M was 22 µM (inactive); in the assay on SF-268, 14.1 µM (inactive); in the assay on SK-MEL-28, 31.2 µM (inactive); in the assay on HOP-92, 41.9 µM (inactive); in the assay with SN12C, 25.9 µM (inactive); in the assay on MDA-N, 29.5 µM (inactive). For the same molecule, the GI50 in the assay on OVCAR-3 is 14.7 µM (inactive); with HOP-62 it was 20.6 µM (inactive); with NCI-H522, 10.7 µM (inactive); with NCI-H23, 26.5 µM (inactive); in the assay with SK-MEL-5, 28.5 µM (inactive); in the assay on MCF7, 35.6 µM (inactive). Further, the GI50 in the assay with PC-3 is 23.9 µM (inactive); with OVCAR-5, 52.4 µM (inactive); in the assay on A498 it was 40.8 µM (inactive); with COLO 205 it was 25.4 µM (inactive); in the assay on MDA-MB-435, 20.1 µM (inactive); in the assay on HL-60 it was 22.7 µM (inactive). Further, in the assay on UACC-62, the GI50 was 20.1 µM (inactive).

Turning to `COc1ccc(Oc2cccc(C3C4C(=O)N(c5ccc(C)c(Cl)c5)C(=O)C4ON3C(C(N)=O)c3ccccc3)c2)cc1` (configuration not stated), the GI50 in the assay with Malme-3M is 15.8 µM (inactive); in the assay on SF-268, 18.3 µM (inactive); with SK-MEL-28, 41.5 µM (inactive); in the assay with HOP-92 it was 24 µM (inactive); in the assay on SN12C, 12.4 µM (inactive); in the assay on MDA-N, 10.4 µM (inactive). The GI50 was 16.7 µM (inactive) in the assay with OVCAR-3; 35.2 µM (inactive) in the assay on HOP-62; 10.6 µM (inactive) with NCI-H522; 8.55 µM (inactive) with NCI-H23; 9.55 µM (inactive) in the assay on SK-MEL-5; 15.3 µM (inactive) with MCF7. Besides, the GI50 with PC-3 is 18.9 µM (inactive); in the assay with OVCAR-5, 17.7 µM (inactive); in the assay with A498, 38.5 µM (inactive); with COLO 205, 15.1 µM (inactive); in the assay on MDA-MB-435 it was 15.5 µM (inactive); in the assay with HL-60 it was 12.6 µM (inactive). In the assay on UACC-62, the GI50 is 10.9 µM (inactive).

As for `Nc1n[n+]([O-])c2cnccc2[n+]1[O-]`, the GI50 in the assay with Malme-3M is > 10 µM (inactive); in the assay on SF-268 it was 93.8 µM (inactive); with SK-MEL-28, 82.4 µM (inactive); with SN12C, 44.2 µM (inactive); in the assay with MDA-N, 20.7 µM (inactive); in the assay on OVCAR-3, 35.4 µM (inactive). Further, the GI50 was > 100 µM (inactive) in the assay on HOP-62; > 100 µM (inactive) with NCI-H522; 42.2 µM (inactive) in the assay with NCI-H23; 16.4 µM (inactive) in the assay on SK-MEL-5; > 10 µM (inactive) in the assay with MCF7; 36.1 µM (inactive) with PC-3. In addition, the GI50 was 52 µM (inactive) in the assay on OVCAR-5; 39.6 µM (inactive) with COLO 205; 21.4 µM (inactive) with MDA-MB-435; 13.6 µM (inactive) in the assay on HL-60; 30.1 µM (inactive) in the assay with UACC-62; > 100 µM (inactive) with HCC 2998.

On to `CC1(CC(=O)O)OC2CCCCCC2O1.NCc1ccccc1` (configuration not stated), for which the GI50 in the assay with Malme-3M is > 100 µM (inactive); with SF-268, > 100 µM (inactive); in the assay on SK-MEL-28, > 100 µM (inactive); in the assay with HOP-92 it was 51.4 µM (inactive); with SN12C, > 100 µM (inactive); with MDA-N it was 73.8 µM (inactive). Besides, the GI50 was > 100 µM (inactive) in the assay with OVCAR-3; > 100 µM (inactive) in the assay on HOP-62; > 100 µM (inactive) in the assay with NCI-H522; > 100 µM (inactive) in the assay on NCI-H23; 88.1 µM (inactive) in the assay with SK-MEL-5; > 100 µM (inactive) in the assay on MCF7. Also, the GI50 with PC-3, with OVCAR-5, with A498, in the assay on COLO 205, in the assay on MDA-MB-435 and with HL-60 was > 100 µM (inactive) throughout. For the same molecule, the GI50 in the assay with UACC-62 was > 100 µM (inactive).

As for `C#CCOC(=O)C(N)CCSC` (configuration not stated), the GI50 in the assay on Malme-3M, in the assay on SF-268, in the assay on SK-MEL-28, with HOP-92, in the assay with SN12C and with MDA-N was > 100 µM (inactive) each time. The GI50 in the assay with OVCAR-3, in the assay on HOP-62, with NCI-H522, with NCI-H23, in the assay with SK-MEL-5 and in the assay with MCF7 was > 100 µM (inactive) throughout. Further, the GI50 in the assay with PC-3, in the assay with OVCAR-5, in the assay with A498, in the assay with COLO 205, in the assay on MDA-MB-435 and in the assay with HL-60 was > 100 µM (inactive) throughout. In addition, the GI50 in the assay with UACC-62 was > 100 µM (inactive).

On to `Cn1nc(-c2ccccc2)c2c(-c3ccccc3)c3cc(Cl)ccc3nc21`, for which the GI50 with Malme-3M, in the assay on SF-268, in the assay with SK-MEL-28, in the assay with SN12C, in the assay with MDA-N and in the assay with OVCAR-3 was > 100 µM (inactive) in each case. Further, the GI50 with HOP-62 was > 100 µM (inactive); with NCI-H522, 45 µM (inactive); in the assay with NCI-H23, > 100 µM (inactive); with SK-MEL-5 it was > 100 µM (inactive); with MCF7, 82 µM (inactive); in the assay on PC-3, > 100 µM (inactive). Also, the GI50 in the assay with OVCAR-5 was > 100 µM (inactive); in the assay with A498, > 100 µM (inactive); with MDA-MB-435, > 100 µM (inactive); in the assay with HL-60, 18.2 µM (inactive); in the assay on UACC-62, > 100 µM (inactive); with HCC 2998 it was > 100 µM (inactive).

For the molecule `COC(=O)C(CSSC[C@H](N/C(C)=C/C(C)=O)C(=O)OC)N/C(C)=C/C(C)=O` (some centres not stated), the GI50 was 14.4 µM (inactive) in the assay with Malme-3M; 42.2 µM (inactive) with SF-268; > 100 µM (inactive) with SK-MEL-28; 32.5 µM (inactive) with HOP-92; 48.8 µM (inactive) in the assay with SN12C; 52.8 µM (inactive) with MDA-N. The GI50 with OVCAR-3 is 4.17 µM (inactive); in the assay on HOP-62, 57.9 µM (inactive); in the assay with NCI-H522 it was 13.9 µM (inactive); with NCI-H23, > 100 µM (inactive); with SK-MEL-5, 67.3 µM (inactive); with MCF7, 26.9 µM (inactive). Further, the GI50 in the assay on PC-3 was 54.1 µM (inactive); in the assay on OVCAR-5, 18.7 µM (inactive); in the assay with A498, > 100 µM (inactive); with COLO 205, > 100 µM (inactive); in the assay with MDA-MB-435, 74.5 µM (inactive); with HL-60, 30.2 µM (inactive). For the same molecule, in the assay with UACC-62, the GI50 is 64.4 µM (inactive).
